Data: patent EP3928779A1 (Chugai Seiyaku Kabushiki Kaisha, priority 2014, dated 2016)

Tested on: rat small-intestinal brush border membrane vesicles
Assay: Inhibitory effect on 33PO4 uptake into rat small-intestinal brush border membrane vesicles (rapid filtration method)
Format: biochemical
Settings: 33PO4 uptake into rat small-intestinal BBMVs; test compound 1 µM; reacted for 60 seconds
Summary of the method: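 Uptake of ^33PO4 was measured by rapid filtration and liquid scintillation counting of filter-retained vesicles, after quenching with ice-cold 110 mM NaCl/1 mM KH2PO4/10 mM HEPES pH 7.5. Vesicles were brush border membranes from the upper small intestine of female Wistar rats aged 4–5 weeks.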

Compound	Rate of uptake inhibition (%) (1 µM)
(4aS)-1-[(2,3-Difluorophenyl)methyl]-6,6-difluoro-4-hydroxy-N-[5-methyl-2-(trifluoromethyl)furan-3-yl]-2-oxo-5,7-dihydro-4aH-pyrrolo[1,2-b]pyridazine-3-carboxamide [Example 5]	54%
Cc1c(Cl)ncnc1-c1cc(C(F)(F)F)ccc1NC(=O)C1=C(O)[C@H](C(C)(C)C)N(C)N(Cc2ccc(OCCN3CCOCC3)c(F)c2F)C1=O [Example 276]	68%
CN1[C@@H](C(C)(C)C)C(O)=C(C(=O)Nc2cnc(C(F)(F)F)nc2-c2ccc(C(F)(F)F)nc2)C(=O)N1Cc1ccc(OCCN2CCOCC2)c(F)c1F [Example 273]	41%
C[C@]12CCCN1N(Cc1cccc(OC(F)F)c1)C(=O)C(C(=O)Nc1ccc(C(F)(F)F)cc1-c1cc(C(F)(F)F)ncn1)=C2O [Example 177]	85%
CN1N(Cc2cccc(F)c2F)C(=O)C(C(=O)Nc2ccc(C(F)(F)F)cc2-c2ccc(S(=O)(=O)N(C)C)cc2)=C(O)C1(C)C [Example 308]	63%
CN1N(Cc2cccc(F)c2F)C(=O)C(C(=O)Nc2ccc(Cl)cc2-c2ccc(C(F)(F)F)nc2)=C(O)C12CCC2 [Example 256]	79%
CN1N(Cc2ccc(OCCCCCCC(=O)O)c(F)c2F)C(=O)C(C(=O)Nc2ccc(C(F)(F)F)cc2-c2cc(C(F)(F)F)ncn2)=C(O)C12CCCC2 [Example 335]	30%
CN1[C@@H](C(C)(C)C)C(O)=C(C(=O)Nc2ccc(Br)c(C(F)(F)F)c2)C(=O)N1Cc1cccc(F)c1F [Example 243]	63%
COCCN1CC[C@@H](Oc2ccc(CN3C(=O)C(C(=O)Nc4ccc(C(F)(F)F)cc4-c4cc(C(F)(F)F)ncn4)=C(O)C4(CCC4)N3C)c(F)c2F)C1 [Example 405, 6-[[2,3-Difluoro-4-[(3R)-1-(2-methoxyethyl)pyrrolidin-3-yl]oxyphenyl]methyl]-9-hydroxy-5-methyl-7-oxo-N-[4-(trifluoromethyl)-2-[6-(trifluoromethyl)pyrimidin-4-yl]phenyl]-5,6-diazaspiro[3.5]non-8-ene-8-carboxamide]	30%
CN1N(Cc2ccc(OCCCCOC[C@H](O)CO)c(F)c2F)C(=O)C(C(=O)Nc2ccc(C(F)(F)F)cc2-c2cc(C(F)(F)F)ncn2)=C(O)C12CCC2 [Example 390]	58%
CN1N(Cc2ccc(OCCCOCCCO)c(F)c2F)C(=O)C(C(=O)Nc2ccc(C(F)(F)F)cc2-c2cc(C(F)(F)F)ncn2)=C(O)C12CCCC2 [Example 398]	34%
CC(C)(C)[C@H]1C(O)=C(C(=O)Nc2ccc(Cl)cc2-c2ccc(C(F)(F)F)nc2)C(=O)N(Cc2cccc(F)c2F)N1CC(F)(F)F [Example 247]	51%
(4aR)-1-[(2,3-Difluorophenyl)methyl]-4-hydroxy-4a-methyl-N-[5-methyl-2-(trifluoromethyl)furan-3-yl]-2-oxo-6,7-dihydro-5H-pyrrolo[1,2-b]pyridazine-3-carboxamide [Example 7]	69%
C[C@]12CCCN1N(Cc1cccc(F)c1F)C(=O)C(C(=O)Nc1ccc(Br)cc1)=C2O [Example 77]	80%
Cc1c(C#N)ncnc1-c1cc(C(F)(F)F)ccc1NC(=O)C1=C(O)C(C)(C)N(C)N(Cc2cccc(F)c2F)C1=O [Example 311]	65%
CN1N(Cc2ccc(OCCCOC[C@H](O)CO)c(F)c2F)C(=O)C(C(=O)Nc2ccc(C(F)(F)F)cc2-c2cc(C(F)(F)F)ncn2)=C(O)C12CCCC2 [Example 392]	47%

Compound	Rate of uptake inhibition (%) (1 µM)
CN1[C@@H](C(C)(C)C)C(O)=C(C(=O)Nc2ccc(Br)c(C(F)(F)F)n2)C(=O)N1Cc1cccc(F)c1F [Example 242]	69%
COc1cc(-c2cc(C(F)(F)F)ccc2NC(=O)C2=C(O)C(C)(C)N(C)N(Cc3cccc(F)c3F)C2=O)cnc1C#N [Example 302]	79%
CN1N(Cc2ccc(OCCN3C4CCC3COC4)c(F)c2F)C(=O)C(C(=O)Nc2ccc(C(F)(F)F)cc2-c2cc(C(F)(F)F)ncn2)=C(O)C12CCCC2 [Example 367]	43%
CN(CCOc1ccc(CN2C(=O)C(C(=O)Nc3ccc(C(F)(F)F)cc3-c3cc(C(F)(F)F)ncn3)=C(O)C3(CCC3)N2C)c(F)c1F)C1COC1 [Example 402, 6-(2,3-Difluoro-4-(2-(methyl(oxetan-3-yl)amino)ethoxy)benzyl)-9-hydroxy-5-methyl-7-oxo-N-(4-(trifluoromethyl)-2-(6-(trifluoromethyl)pyrimidin-4-yl)phenyl)-5,6-diazaspiro[3.5]non-8-ene-8-carboxamide]	54%
1-[(3-Fluorophenyl)methyl]-4-hydroxy-4a-methyl-N-[5-methyl-2-(trifluoromethyl)furan-3-yl]-2-oxo-5,6,7,8-tetrahydropyrido[1,2-b]pyridazine-3-carboxamide [Example 18]	12%
CN1N(Cc2ccc(OCCN3CCC(N4CCOCC4)CC3)c(F)c2F)C(=O)C(C(=O)Nc2ccc(C(F)(F)F)cc2-c2cc(C(F)(F)F)ncn2)=C(O)C12CCCC2 [Example 374]	42%
COc1cccc(-c2cc(C(F)(F)F)ccc2NC(=O)C2=C(O)[C@@]3(C)CCCN3N(Cc3ccc(OCc4ccncc4)c(F)c3F)C2=O)c1OC [Example 151]	92%
CSc1ncc(-c2cc(C(F)(F)F)ccc2NC(=O)C2=C(O)[C@@]3(C)CCCN3N(Cc3ccc(C#CCCCCC(=O)O)c(F)c3F)C2=O)cn1 [Example 118]	81%
C[C@]12CCCN1N(Cc1cc(F)c(F)c(F)c1)C(=O)C(C(=O)Nc1cc(F)c(Br)c(F)c1)=C2O [Example 197]	82%
C[C@]12CCCN1N(Cc1ccc(CCCCCCC(=O)O)c(F)c1F)C(=O)C(C(=O)Nc1ccc(Cl)cc1-c1ccc(C(F)(F)F)nc1)=C2O [Example 116, 7-[4-[[(4aR)-3-[[4-Chloro-2-[6-(trifluoromethyl)pyridin-3-yl]phenyl]carbarnoyl]-4-hydroxy-4a-methyl-2-oxo-6,7-dihydro-5H-pyrrolo[1,2-b]pyridazin-1-yl]methyl]-2,3-difluorophenyl]heptanoate]	72%
C[C@]12CCCN1N(Cc1cc(F)cc(F)c1)C(=O)C(C(=O)Nc1ccc(C(F)(F)F)cc1-c1ccc(C(F)(F)F)nc1)=C2O [Example 171]	78%
COc1cccc(-c2cc(C(F)(F)F)ccc2NC(=O)C2=C(O)[C@@]3(C)CCCN3N(Cc3ccc(C#CCCCCO)c(F)c3F)C2=O)c1OC [Example 135]	90%
C[C@]12CCCN1N(Cc1ccccc1Cl)C(=O)C(C(=O)Nc1ccc(C(F)(F)F)cc1-c1ccc(C(F)(F)F)nc1)=C2O [Example 168]	72%
CN1[C@@H](C(C)(C)C)C(O)=C(C(=O)Nc2ccc(Cl)cc2-c2ccc(C(F)(F)F)nc2)C(=O)N1Cc1cccc(F)c1F [Example 239]	48%
C[C@]12CCCN1N(Cc1ccccc1C#N)C(=O)C(C(=O)Nc1ccc(C(F)(F)F)cc1-c1cc(C(F)(F)F)ncn1)=C2O [Example 178]	81%
C[C@]12CCCN1N(Cc1ccc(CCCOCCCO)c(F)c1F)C(=O)C(C(=O)Nc1ccc(C(F)(F)F)cc1-c1ccc(C(F)(F)F)nc1)=C2O [Example 141]	83%
